Assays:
[1] = test system: BRSNS: oilseed rape (Brassica napus); assay: Dry stress test on potted plants, spray application, oilseed rape; assay type: in vivo; details: individual substance
Description: (§1) Seeds of monocotyledonous and dicotyledonous crop plants are placed in sandy loam in wood-fiber pots, covered with soil and cultivated in a greenhouse under good growth conditions. The test plants are treated in the early leaf stage (BBCH10-BBCH13, BBCH-Monografie der Biologische Bundesanstalt für Land and Forstwirtschaft, 2nd edition, 2001), i.e. 2-3 weeks after sowing according to the species. To ensure uniform water supply before commencement of stress, the potted plants were supplied with the maximum amount of water immediately beforehand by dam irrigation and transferred in plastic inserts in order to prevent subsequent, excessively rapid drying. The inventive compounds, formulated in the form of wettable powders (WP), are then sprayed onto the green parts of the plants as an aqueous suspension at an equivalent water application rate of 600 l/ha with addition of 0.2% wetting agent (agrotin). Substance application is followed immediately by stress treatment of the plants (cold or dry stress). Dry stress is induced by slow drying under the following conditions: • “day”: 14 hours with illumination at 26° C. • “night”: 10 hours without illumination at 18° C. The cold stress phase is ended after exactly 14 days. The duration of the dry stress phase is guided mainly by the state of the untreated, stressed control plants and thus varies from crop to crop. It is ended (by re-irrigating) as soon as irreversible damage is observed on the untreated, stressed control plants. In the case of dicotyledonous crops, for example oilseed rape and soya, the duration of the dry stress phase is between 4 and 6 days, in the case of monocotyledonous crops, for example wheat, barley or corn, between 6 and 10 days. The end of the stress phase is followed by a 7-day recovery phase, during which the plants are once again kept under good growth conditions in a greenhouse. In order to rule out any influence of the effects observed by any fungicidal action of the test compounds, it is additionally ensured that the tests proceed without fungal infection and without infection pressure. After the recovery phase has ended, the intensities of damage are rated visually compared to untreated, unstressed controls of the same age (in the case of dry stress) or the same growth stage (in the case of cold stress). The intensity of damage is first assessed as a percentage (100%=plants have died, 0%=like control plants). These values are then used to calculate the efficacy of the test compounds (=percentage reduction in the intensity of damage as a result of substance application) by the following formula: [formula] EF: efficacy (%) DVus: damage value of the untreated, stressed control DVts: damage value of the plants treated with test compound The table below lists mean values in each case from three results of the same test.

[2] = test system: ZEAMX: corn (Zea mais); assay: Dry stress test on potted plants, spray application, corn; assay type: in vivo; details: individual substance
Description: as §1

[3] = test system: crop plants, for example oilseed rape; assay: Stunting: mean plant height after azole application; assay type: in vivo; details: dosage 250 g/ha, comparative 11.7 cm
Description: In the case of application of the inventive azoles, this stunting occurs to a lower or non-undesirable degree: […]

[4] = test system: ABA 8′-hydroxylase; details: studies to date (Kitahata et al., 2005; Saito et al., 2006); cited from earlier work
[5] = test system: HORVS barley (Hordeum vulgare); assay: Dry stress test on potted plants, spray application, barley; assay type: in vivo; details: 100 g/ha, individual substance
Description: Seeds of monocotyledonous and dicotyledonous crop plants are placed in sandy loam in wood-fiber pots, covered with soil and cultivated in a greenhouse under good growth conditions. The test plants are treated in the early leaf stage (BBCH10-BBCH13, BBCH-Monografie der Biologische Bundesanstalt für Land and Forstwirtschaft, 2nd edition, 2001), i.e. 2-3 weeks after sowing according to the species. To ensure uniform water supply before commencement of stress, the potted plants were supplied with the maximum amount of water immediately beforehand by dam irrigation and transferred in plastic inserts in order to prevent subsequent, excessively rapid drying. The inventive compounds, formulated in the form of wettable powders (WP), are then sprayed onto the green parts of the plants as an aqueous suspension at an equivalent water application rate of 600 l/ha with addition of 0.2% wetting agent (agrotin). Substance application is followed immediately by stress treatment of the plants (cold or dry stress). Dry stress is induced by slow drying under the following conditions: • “day”: 14 hours with illumination at 26° C. • “night”: 10 hours without illumination at 18° C. The cold stress phase is ended after exactly 14 days. […] The intensity of damage is first assessed as a percentage (100%=plants have died, 0%=like control plants). […]

SMILES	efficacy (percentage reduction in the intensity of damage) ([1]; 100 g/ha)	efficacy (percentage reduction in the intensity of damage) ([1]; 250 g/ha)	efficacy (percentage reduction in the intensity of damage) ([2]; 250 g/ha)	Mean plant height (cm) [3]	inhibiting action on abscisic acid catabolism or ABA 8′-hydroxylase [4]	efficacy (percentage reduction in the intensity of damage) [5]	efficacy (percentage reduction in the intensity of damage) ([2]; 100 g/ha)
CC(C)(C)C(O)(CCc1ccc(Cl)cc1)Cn1cncn1 (stereo not shown) [tebuconazole]	27%	42%	30%	10.2 cm	only slight inhibiting action, if any		
OC(Cc1ccccc1Cl)(Cn1nc[nH]c1=S)C1(Cl)CC1 (stereo not shown) [prothioconazole]	12%			10.2 cm		11%	12%
CC1(C)CCC(Cc2ccc(Cl)cc2)C1(O)Cn1cncn1 (stereo not shown) [metconazole]	50%						
Fc1ccc([C@]2(Cn3cncn3)O[C@H]2c2ccccc2Cl)cc1 (racemic) [epoxiconazole]	35%					17%	11%
CC(C1CC1)C(O)(Cn1cncn1)c1ccc(Cl)cc1 (stereo not shown) [cyproconazole]		42%	37%				40%

From patent US8614168B2, “Use of azoles for increasing the abiotic stress resistance of plants or plant parts” (Monheim, priority 2008, dated 2013)
